Drawing on US20230322846A9, “NEUROACTIVE STEROIDS AND THEIR METHODS OF USE” (SAGE THERAPEUTICS, INC., priority 2018, published 2023), this text covers IC50 for 12 compounds.

In this test the target is [35S]-TBPS binding, rat brain cortical membranes. The test can be described thus: Steroid inhibition of [35S]-TBPS binding. Conditions: 3 nM [35S]-TBPS, in the presence of 5 mM GABA. Put shortly:
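In the presence of […], compounds (DMSO 0.5% final) competed with 3 nM [35S]-TBPS for Sprague-Dawley rat cortical membranes, pH 7.4 phosphate buffer, 90 min, room temperature. Filtration and scintillation counting; specific binding defined by […]; IC50 and maximal inhibition fitted per experiment, averaged as mean ± SEM.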

Regarding `COC[C@@]1(O)CC[C@H]2[C@H](CC[C@@H]3[C@@H]2CC[C@]2(C)[C@@H]([C@@H](C)NC(=O)c4ccc(OC(F)(F)F)cn4)CC[C@@H]32)C1` [Example 128], the IC50 – broadly, the point on the concentration scale where inhibition reaches its midpoint – is 100 to 1000 nM.

Consider `CCOC[C@@]1(O)CC[C@H]2[C@H](CC[C@@H]3[C@@H]2CC[C@]2(C)[C@@H]([C@@H](C)Cc4cccc(C#N)c4)CC[C@@H]32)C1` [Example 402, 3-((S)-2-((3R,5R,8R,9R,10S,13R,14S,17R)-3-(ethoxymethyl)-3-hydroxy-13-methylhexadecahydro-1H-cyclopenta[a]phenanthren-17-yl)propyl)benzonitrile], for which the IC50 is < 100 nM.

With `CCOC[C@@]1(O)CC[C@H]2[C@H](CC[C@@H]3[C@@H]2CC[C@]2(C)[C@@H]([C@H](C)Cn4ccnn4)CC[C@@H]32)C1` [Example 267, (3R,5R,8R,9R,10S,13S,14S,17R)-17-((S)-1-(1H-1,2,3-triazol-1-yl)propan-2-yl)-3-(ethoxymethyl)-13-methylhexadecahydro-11H-cyclopenta[a]phenanthren-3-ol], the IC50 is < 100 nM.

Take `C[C@H]([C@H]1CC[C@H]2[C@@H]3CC[C@@H]4C[C@](C)(O)CC[C@@H]4[C@H]3CC[C@]12C)N1CCc2cc(C#N)ccc2C1=O` [Example 45, 2-((R)-1-((3R,5R,8R,9R,10S,13S,14S,17S)-3-hydroxy-3,13-dimethylhexadecahydro-1H-cyclopenta[a]phenanthren-17-yl)ethyl)-1-oxo-1,2,3,4-tetrahydroisoguinoline-6-carbonitrile]: the IC50 is < 100 nM.

In the case of `C[C@@H]([C@H]1CC[C@H]2[C@@H]3CC[C@@H]4C[C@](C)(O)CC[C@@H]4[C@H]3CC[C@]12C)N(C)c1ccccc1` [Example 39, (3R,5R,8R,9R,10S,13S,14S,17S)-3,13-dimethyl-17-((S)-1-(methyl(phenyl)amino)ethyl)hexadecahydro-1H-cyclopenta[a]phenanthren-3-ol], the IC50 is 1000 to 10000 nM.

For `Cc1cncc(C[C@@H](C)[C@H]2CC[C@H]3[C@@H]4CC[C@@H]5C[C@](C)(O)CC[C@@H]5[C@H]4CC[C@]23C)c1` [Example 434], the IC50 lay in the range of 100 to 1000 nM.

For the compound `CCOC[C@@]1(O)CC[C@@]2(C)[C@H](CC[C@H]3C4CC[C@H]([C@@H](C)Nc5ccc(-n6ccc(C#N)n6)cn5)[C@@]4(C)CC[C@@H]32)C1` (stereo partly drawn) [Example 502], the IC50 is 100 to 1000 nM.

In the case of `COC[C@@]1(O)CC[C@H]2[C@@H](CC[C@@H]3[C@@H]2CC[C@]2(C)[C@@H](CCn4nccn4)CC[C@@H]32)C1` [Example 297, (3R,5S,8R,9R,10S,13R,14S,17R)-17-(2-(2H-1,2,3-triazol-2-yl)ethyl)-3-(methoxymethyl)-13-methylhexadecahydro-1H-cyclopenta[a]phenanthren-3-ol], the IC50 is < 100 nM.

As to `COC[C@@]1(O)CC[C@H]2[C@@H](CC[C@@H]3[C@@H]2CC[C@]2(C)[C@@H](CCn4ccnn4)CC[C@@H]32)C1` [Example 298, (3R,5S,8R,9R,10S,13R,14S,17R)-17-(2-(1H-1,2,3-triazol-1-yl)ethyl)-3-(methoxymethyl)-13-methylhexadecahydro-1H-cyclopenta[a]phenanthren-3-ol], the IC50 is < 100 nM.

Consider `COC[C@@]1(O)CC[C@H]2[C@H](CC[C@@H]3[C@@H]2CC[C@]2(C)[C@@H]([C@@H](C)Nc4cccc(C#N)c4)CC[C@@H]32)C1` [Example 254], for which the IC50 was < 100 nM.

Regarding `COc1cccc(C(=O)N[C@H](C)[C@H]2CC[C@H]3[C@@H]4CC[C@@H]5C[C@](C)(O)CC[C@@H]5[C@H]4CC[C@]23C)c1` [Example 104], the concentration for half-maximal inhibition (IC50) was < 100 nM.

With `COC[C@@]1(O)CC[C@H]2[C@H](CC[C@@H]3[C@@H]2CC[C@]2(C)[C@@H]([C@H](C)Cc4ccc(C(F)(F)F)nc4)CC[C@@H]32)C1` [Example 421], the IC50 lay in the range of 100 to 1000 nM.
